Data from ChEMBL document CHEMBL1139219, “Synthesis and biological evaluation of quinoline salicylic acids as P-selectin antagonists” (J Med Chem, 2007).
Blank lines part the entries; values can stand above or below the molecule they belong to. Calls of active or inactive are those of the source. The rule behind the calls is not given here.

Key:
[1] = biological target: Dihydroorotate dehydrogenase (quinone), mitochondrial (Homo sapiens, UniProt Q02127)
Description: Inhibition of human recombinant DHOD expressed in Escherichia coli

[2] = biological target: P-selectin (Homo sapiens) (UniProt P16109); test: Inhibition of human recombinant P-selectin expressed in CHO cells by Biacore assay at 2 mM
Sequence of P-selectin (Homo sapiens) (P16109 whole entry, looked up): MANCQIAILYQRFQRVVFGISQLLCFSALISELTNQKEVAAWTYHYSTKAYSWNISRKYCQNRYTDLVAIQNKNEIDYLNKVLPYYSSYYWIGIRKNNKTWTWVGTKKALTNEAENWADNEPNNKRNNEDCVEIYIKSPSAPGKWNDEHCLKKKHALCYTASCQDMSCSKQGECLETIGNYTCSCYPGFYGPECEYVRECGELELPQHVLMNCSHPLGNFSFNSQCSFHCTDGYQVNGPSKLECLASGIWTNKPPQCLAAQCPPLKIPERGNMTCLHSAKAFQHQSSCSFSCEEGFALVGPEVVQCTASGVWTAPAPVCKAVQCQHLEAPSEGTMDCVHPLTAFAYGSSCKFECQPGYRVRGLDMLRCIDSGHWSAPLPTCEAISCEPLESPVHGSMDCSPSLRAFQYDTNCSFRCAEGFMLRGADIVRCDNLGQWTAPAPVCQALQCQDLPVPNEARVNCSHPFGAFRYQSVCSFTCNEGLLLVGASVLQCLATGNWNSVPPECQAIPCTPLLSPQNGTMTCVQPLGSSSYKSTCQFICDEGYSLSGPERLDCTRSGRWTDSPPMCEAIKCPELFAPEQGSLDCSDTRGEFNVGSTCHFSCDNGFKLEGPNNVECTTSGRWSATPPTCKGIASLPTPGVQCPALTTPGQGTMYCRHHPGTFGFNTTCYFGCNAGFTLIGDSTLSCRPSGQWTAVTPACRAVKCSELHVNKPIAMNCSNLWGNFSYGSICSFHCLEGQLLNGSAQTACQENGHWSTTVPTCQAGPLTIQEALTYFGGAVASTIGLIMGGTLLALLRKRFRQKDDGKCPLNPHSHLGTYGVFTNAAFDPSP

[3] = biological target: Dihydroorotate dehydrogenase (quinone), mitochondrial (Rattus norvegicus) (UniProt Q63707)
Sequence of Dihydroorotate dehydrogenase (quinone), mitochondrial (Rattus norvegicus) (Q63707 whole entry): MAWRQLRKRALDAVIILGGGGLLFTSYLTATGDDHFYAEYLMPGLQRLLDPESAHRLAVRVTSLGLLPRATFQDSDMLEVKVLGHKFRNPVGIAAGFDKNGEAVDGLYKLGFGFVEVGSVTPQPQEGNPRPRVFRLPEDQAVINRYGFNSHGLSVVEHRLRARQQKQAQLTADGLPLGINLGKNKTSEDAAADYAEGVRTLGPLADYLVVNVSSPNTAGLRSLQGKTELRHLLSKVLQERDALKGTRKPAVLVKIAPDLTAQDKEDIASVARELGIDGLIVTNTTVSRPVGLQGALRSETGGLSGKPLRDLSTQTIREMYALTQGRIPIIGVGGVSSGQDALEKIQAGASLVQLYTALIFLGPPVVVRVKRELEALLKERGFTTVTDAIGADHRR
Description: Antagonist activity against DHOD in rat

HUVEC = test: Inhibition of neutrophil adhesion to IL4-stimulated HUVEC by leukocyte rolling assay; format: functional, cell-based; settings: Homo sapiens
[4] = biological target: P-selectin (Homo sapiens) (UniProt P16109); test: Inhibition of human recombinant P-selectin expressed in CHO cells by Biacore assay at 6 mM
[5] = Clearance in Sprague-Dawley rat at 1 mg/kg, iv; format: ADME, organism-based; parameters: dose 1 mg/kg, route intravenous; settings: in vivo
[6] = AUC in Sprague-Dawley rat at 1 mg/kg, iv; format: ADME, organism-based; parameters: dose 1 mg/kg, route intravenous; settings: plasma
[7] = Cmax in Sprague-Dawley rat at 1 mg/kg, iv; format: ADME, organism-based; parameters: dose 1 mg/kg, route intravenous; settings: in vivo
Rattus norvegicus [8] = test: Inhibition of Freund's complete adjuvant-induced arthritis in Lewis rat at 5 mg/kg, po; format: functional, organism-based; parameters: dose 5 mg/kg
Cytochrome P450 1A2 = biological target: T1, Cytochrome P450 1A2 (Homo sapiens, UniProt P05177); test: Inhibition of human CYP1A2; format: ADME
T1 sequence (P05177 whole entry): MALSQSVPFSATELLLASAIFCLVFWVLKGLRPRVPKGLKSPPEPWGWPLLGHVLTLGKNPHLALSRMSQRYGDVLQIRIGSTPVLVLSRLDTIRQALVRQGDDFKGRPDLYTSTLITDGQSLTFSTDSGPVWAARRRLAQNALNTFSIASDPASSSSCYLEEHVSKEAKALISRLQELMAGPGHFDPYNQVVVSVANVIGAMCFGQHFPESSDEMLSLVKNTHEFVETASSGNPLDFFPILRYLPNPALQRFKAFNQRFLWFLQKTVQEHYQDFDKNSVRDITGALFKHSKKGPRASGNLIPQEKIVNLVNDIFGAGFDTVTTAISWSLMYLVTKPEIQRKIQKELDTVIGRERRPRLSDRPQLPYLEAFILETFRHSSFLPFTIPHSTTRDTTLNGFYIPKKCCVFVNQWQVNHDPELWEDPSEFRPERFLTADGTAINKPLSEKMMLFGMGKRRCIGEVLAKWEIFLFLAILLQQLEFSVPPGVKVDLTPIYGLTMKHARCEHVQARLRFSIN

Cytochrome P450 2C8 = biological target: T2, Cytochrome P450 2C8 (Homo sapiens, UniProt P10632); test: Inhibition of human CYP2C8; format: ADME
T2 sequence (P10632 whole entry): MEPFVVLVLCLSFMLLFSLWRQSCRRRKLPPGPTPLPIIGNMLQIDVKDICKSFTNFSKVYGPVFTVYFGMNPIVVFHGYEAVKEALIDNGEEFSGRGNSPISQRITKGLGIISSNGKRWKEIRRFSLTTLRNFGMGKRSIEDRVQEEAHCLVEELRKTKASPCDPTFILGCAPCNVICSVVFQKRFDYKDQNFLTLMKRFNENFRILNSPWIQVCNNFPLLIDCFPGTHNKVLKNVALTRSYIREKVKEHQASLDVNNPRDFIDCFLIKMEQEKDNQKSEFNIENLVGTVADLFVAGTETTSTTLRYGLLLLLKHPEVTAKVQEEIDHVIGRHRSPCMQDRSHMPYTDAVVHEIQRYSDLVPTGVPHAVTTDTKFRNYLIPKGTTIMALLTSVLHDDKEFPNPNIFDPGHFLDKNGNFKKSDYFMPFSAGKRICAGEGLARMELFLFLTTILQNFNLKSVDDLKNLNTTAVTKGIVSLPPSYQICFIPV

Cytochrome P450 2C19 = Cytochrome P450 2C19 (Homo sapiens, UniProt P33261); test: Inhibition of human CYP2C19; format: ADME
Sequence of Cytochrome P450 2C19 (P33261 whole entry): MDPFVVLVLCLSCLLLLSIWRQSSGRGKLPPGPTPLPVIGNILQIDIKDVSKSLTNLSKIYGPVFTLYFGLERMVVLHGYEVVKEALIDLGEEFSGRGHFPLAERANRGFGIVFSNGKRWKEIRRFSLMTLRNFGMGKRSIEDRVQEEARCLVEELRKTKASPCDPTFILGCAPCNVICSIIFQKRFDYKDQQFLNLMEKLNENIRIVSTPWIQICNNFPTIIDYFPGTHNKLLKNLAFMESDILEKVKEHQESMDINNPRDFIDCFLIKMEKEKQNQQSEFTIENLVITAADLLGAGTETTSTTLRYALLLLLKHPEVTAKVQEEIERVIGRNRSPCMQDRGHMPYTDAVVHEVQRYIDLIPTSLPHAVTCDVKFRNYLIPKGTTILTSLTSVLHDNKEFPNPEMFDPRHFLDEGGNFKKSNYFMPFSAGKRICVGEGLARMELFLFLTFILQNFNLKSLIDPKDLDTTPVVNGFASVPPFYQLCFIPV

Rattus norvegicus [9] = species: Rattus norvegicus; test: Toxicity in Lewis rat Freund's complete adjuvant-induced arthritis model; format: organism-based; settings: in vivo
Cytochrome P450 3A4 = Cytochrome P450 3A4 (Homo sapiens, UniProt P08684); test: Inhibition of human CYP3A4; format: ADME
Sequence of Cytochrome P450 3A4 (P08684 whole entry): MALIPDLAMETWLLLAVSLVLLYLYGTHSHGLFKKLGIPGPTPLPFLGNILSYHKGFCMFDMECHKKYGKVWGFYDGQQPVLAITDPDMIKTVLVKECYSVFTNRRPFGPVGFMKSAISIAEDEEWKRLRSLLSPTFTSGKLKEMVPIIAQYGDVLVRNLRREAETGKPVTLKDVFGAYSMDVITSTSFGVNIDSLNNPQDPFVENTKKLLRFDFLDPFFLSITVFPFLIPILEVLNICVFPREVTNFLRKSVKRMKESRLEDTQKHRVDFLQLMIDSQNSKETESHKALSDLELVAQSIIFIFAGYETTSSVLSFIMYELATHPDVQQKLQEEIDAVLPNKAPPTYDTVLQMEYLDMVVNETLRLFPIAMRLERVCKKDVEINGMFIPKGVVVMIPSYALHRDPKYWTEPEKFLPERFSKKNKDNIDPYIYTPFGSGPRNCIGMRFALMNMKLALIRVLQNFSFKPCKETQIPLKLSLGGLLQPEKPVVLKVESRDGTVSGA

Cytochrome P450 2D6 = Cytochrome P450 2D6 (Homo sapiens, UniProt P10635); test: Inhibition of human CYP2D6; format: ADME
Sequence of Cytochrome P450 2D6 (P10635 whole entry): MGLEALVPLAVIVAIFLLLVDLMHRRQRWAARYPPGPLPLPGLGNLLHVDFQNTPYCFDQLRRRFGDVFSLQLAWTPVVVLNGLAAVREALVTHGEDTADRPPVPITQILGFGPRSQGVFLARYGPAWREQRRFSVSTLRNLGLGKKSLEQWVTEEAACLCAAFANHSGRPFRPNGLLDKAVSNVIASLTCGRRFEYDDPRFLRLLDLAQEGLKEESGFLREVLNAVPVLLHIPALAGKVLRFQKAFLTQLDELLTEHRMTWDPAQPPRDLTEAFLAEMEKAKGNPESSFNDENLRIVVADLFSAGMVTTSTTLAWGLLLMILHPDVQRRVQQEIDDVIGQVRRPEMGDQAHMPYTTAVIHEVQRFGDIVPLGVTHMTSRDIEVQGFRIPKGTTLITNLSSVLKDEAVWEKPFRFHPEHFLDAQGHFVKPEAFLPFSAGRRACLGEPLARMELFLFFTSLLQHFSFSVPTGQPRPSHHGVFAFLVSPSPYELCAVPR

[10] = Oral bioavailability in rat; format: ADME, organism-based; settings: in vivo
Cytochrome P450 2A6 = biological target: T3, Cytochrome P450 2A6 (Homo sapiens, UniProt P11509); test: Inhibition of human CYP2A6; format: ADME
T3 sequence (P11509 whole entry): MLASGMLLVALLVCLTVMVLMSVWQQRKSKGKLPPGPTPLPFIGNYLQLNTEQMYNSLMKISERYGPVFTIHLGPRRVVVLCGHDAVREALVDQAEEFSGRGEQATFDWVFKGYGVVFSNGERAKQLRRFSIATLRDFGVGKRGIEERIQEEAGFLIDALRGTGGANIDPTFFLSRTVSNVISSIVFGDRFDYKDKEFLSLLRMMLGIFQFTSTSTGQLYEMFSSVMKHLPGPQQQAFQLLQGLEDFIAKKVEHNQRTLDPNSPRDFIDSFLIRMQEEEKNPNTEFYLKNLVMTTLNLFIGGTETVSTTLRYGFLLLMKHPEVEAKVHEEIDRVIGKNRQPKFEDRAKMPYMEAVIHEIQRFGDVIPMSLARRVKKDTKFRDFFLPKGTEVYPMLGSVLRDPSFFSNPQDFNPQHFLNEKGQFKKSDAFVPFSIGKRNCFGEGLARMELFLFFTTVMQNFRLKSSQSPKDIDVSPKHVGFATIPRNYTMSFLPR

Cytochrome P450 2C9 = Cytochrome P450 2C9 (Homo sapiens, UniProt P11712); test: Inhibition of human CYP2C9; format: ADME
Sequence of Cytochrome P450 2C9 (P11712 whole entry): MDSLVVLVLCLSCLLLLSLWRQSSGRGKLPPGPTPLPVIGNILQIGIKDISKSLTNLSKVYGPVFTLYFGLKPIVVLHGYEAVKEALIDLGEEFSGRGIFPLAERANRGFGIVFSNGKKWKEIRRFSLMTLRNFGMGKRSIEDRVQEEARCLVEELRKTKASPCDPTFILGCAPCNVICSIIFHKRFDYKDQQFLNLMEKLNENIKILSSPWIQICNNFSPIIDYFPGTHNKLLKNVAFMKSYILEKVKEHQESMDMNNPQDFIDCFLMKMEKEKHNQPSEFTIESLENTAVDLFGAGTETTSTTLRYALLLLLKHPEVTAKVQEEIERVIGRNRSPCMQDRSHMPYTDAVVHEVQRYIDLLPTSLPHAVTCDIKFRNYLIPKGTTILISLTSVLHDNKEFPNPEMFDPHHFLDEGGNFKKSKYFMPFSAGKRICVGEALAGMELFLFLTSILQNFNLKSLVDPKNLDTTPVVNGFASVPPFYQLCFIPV

Rattus norvegicus [11] = test: Plasma concentration in Lewis rat Freund's complete adjuvant-induced arthritis model at 10 mg/kg, po; format: ADME, organism-based; parameters: dose 10 mg/kg, route oral; settings: in vivo
Rattus norvegicus [12] = test: Inhibition of carrageenan-induced paw edema in Sprague-Dawley rat at 10 mg/kg, po; format: functional
Rattus norvegicus [13] = test: Inhibition of carrageenan-induced paw edema in Sprague-Dawley rat at 0.5 mg/kg, po; format: functional
Rattus norvegicus [14] = test: Inhibition of carrageenan-induced paw edema in Sprague-Dawley rat at 5 mg/kg, po; format: functional
Rattus norvegicus [15] = test: Inhibition of carrageenan-induced paw edema in Sprague-Dawley rat at 50 mg/kg, po; format: functional
Rattus norvegicus [16] = test: Inhibition of carrageenan-induced paw edema in Sprague-Dawley rat at 1 mg/kg, po; format: functional
[17] = biological target: P-selectin (Homo sapiens) (UniProt P16109); test: Inhibition of human recombinant P-selectin expressed in CHO cells by Biacore assay at 250 uM

Sequence of Dihydroorotate dehydrogenase (quinone), mitochondrial (Q02127 whole entry): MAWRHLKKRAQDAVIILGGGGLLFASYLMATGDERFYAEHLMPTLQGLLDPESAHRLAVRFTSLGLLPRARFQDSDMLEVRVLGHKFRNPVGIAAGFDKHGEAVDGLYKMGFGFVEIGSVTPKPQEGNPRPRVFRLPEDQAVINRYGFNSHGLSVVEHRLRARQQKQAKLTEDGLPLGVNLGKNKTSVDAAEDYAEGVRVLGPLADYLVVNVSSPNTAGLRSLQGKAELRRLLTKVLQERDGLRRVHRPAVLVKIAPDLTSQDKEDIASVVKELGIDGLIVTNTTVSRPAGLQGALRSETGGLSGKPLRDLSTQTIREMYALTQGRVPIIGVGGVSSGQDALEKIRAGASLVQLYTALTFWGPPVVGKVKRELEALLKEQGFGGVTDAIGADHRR

IC50 [1]: 306 µM
SMILES: COc1cccc2c(C(=O)O)c(O)c(-c3ccc(Cl)cc3)nc12

inhibition [2]: 38%
SMILES: O=C(O)c1c(O)c(-c2ccc(Cl)cc2)nc2ccc(Cl)cc12

inhibition [4]: 22%
SMILES: COc1c(-c2ccccc2)nc2ccccc2c1C(=O)O

Activity [4]: inactive
SMILES: Oc1cc2ccccc2nc1-c1ccccc1

IC50 (Cytochrome P450 1A2): 500 µM
IC50 (Cytochrome P450 2C8): 4.8 µM
IC50 (Cytochrome P450 2C19): 146 µM
clearance [5]: 9.1 mL/min/kg
AUC [6]: 3.93 µM·h
IC50 (Cytochrome P450 3A4): 55 µM
Cmax [7]: 9 µM
IC50 (Cytochrome P450 2D6): 151 µM
bioavailability [10]: 24%
IC50 (Cytochrome P450 2A6): 500 µM
IC50 (Cytochrome P450 2C9): 8.2 µM
concentration (Rattus norvegicus [11]): 0.5 µM
SMILES: O=C(O)c1c(O)c(-c2ccc(Cl)cc2)nc2c(-c3ccccc3)cccc12
Activity (Rattus norvegicus [9]): Non-toxic
IC50 (HUVEC): 4.5 µM

clearance [5]: 13.3 mL/min/kg
AUC [6]: 3.45 µM·h
IC50 [1]: 301 µM
Cmax [7]: 6.7 µM
SMILES: CCC(C)c1cccc2c(C(=O)O)c(O)c(-c3ccc(Cl)cc3)nc12 (stereo not drawn)
IC50 (HUVEC): 3 µM

IC50 [1]: 136 µM
SMILES: O=C(O)c1c(O)c(-c2ccc(Cl)cc2)nc2c(C(F)(F)F)cccc12
IC50 (HUVEC): 13 µM

IC50 [1]: 132 µM
SMILES: O=C(O)c1c(O)c(-c2ccc(Cl)cc2)nc2c(Br)cccc12
IC50 (HUVEC): 20 µM

inhibition [4]: 22%
SMILES: O=C(O)c1cc(-c2ccccc2)nc2ccccc12

IC50 (Cytochrome P450 1A2): 4 µM
IC50 (Cytochrome P450 2C8): 9 µM
IC50 (Cytochrome P450 2C19): 1 µM
clearance [5]: 6.2 mL/min/kg
AUC [6]: 7.68 µM·h
IC50 (Cytochrome P450 3A4): 7 µM
Cmax [7]: 13 µM
IC50 (Cytochrome P450 2D6): 17 µM
IC50 (Cytochrome P450 2A6): 20 µM
IC50 (Cytochrome P450 2C9): 2 µM
concentration (Rattus norvegicus [11]): 1.8 µM
SMILES: Cc1ccc2c(C(=O)O)c(O)c(-c3ccc(Cl)cc3)nc2c1C
inhibition in vivo at 10 mg/kg (Rattus norvegicus [12]): 14.1%
inhibition in vivo at 0.5 mg/kg (Rattus norvegicus [13]): 10.8%
Activity (Rattus norvegicus [9]): Non-toxic
inhibition in vivo at 5 mg/kg (Rattus norvegicus [14]): 10.3%
inhibition in vivo at 50 mg/kg (Rattus norvegicus [15]): 15.6%
IC50 (HUVEC): 10 µM
inhibition in vivo at 1 mg/kg (Rattus norvegicus [16]): 12.8%

IC50 [1]: 151 µM
SMILES: COc1ccc2c(C(=O)O)c(O)c(-c3ccc(Cl)cc3)nc2c1

Continued, molecule first:

SMILES: Nc1c(-c2ccc(-c3ccccc3)cc2)nc2ccc(F)cc2c1C(=O)O
LD50 [3]: 20.5 mg/kg
IC50 [1]: 0.012 µM

SMILES: Cc1ccc2c(C(=O)O)c(O)c(-c3ccc(OC(F)(F)F)cc3)nc2c1C
IC50 (HUVEC): 15 µM

SMILES: O=C(O)c1c(O)c(-c2ccc(Cl)cc2)nc2c(OC(F)(F)F)cccc12
IC50 [1]: 130 µM
IC50 (HUVEC): 10.5 µM

SMILES: O=C(O)c1c(O)c(-c2ccc(Cl)cc2)nc2ccc(OC(F)(F)F)cc12
IC50 (HUVEC): 25 µM

SMILES: CCN(CC)c1ccc(-c2nc3c(C)c(C)ccc3c(C(=O)O)c2O)cc1
IC50 (HUVEC): 19 µM

SMILES: Cc1ccc2c(C(=O)O)c(O)c(-c3ccc(C(F)(F)F)cc3)nc2c1C
clearance [5]: 4.7 mL/min/kg
AUC [6]: 8.58 µM·h
Cmax [7]: 9 µM
IC50 (HUVEC): 7 µM

SMILES: Cc1ccc2c(C(=O)O)c(O)c(-c3cccc(OC(F)(F)F)c3)nc2c1C
IC50 (HUVEC): 5 µM

SMILES: Cc1ccc(-c2cc(C(F)(F)F)nn2-c2ccc(S(N)(=O)=O)cc2)cc1
Activity (Rattus norvegicus [8]): Active

SMILES: CN(C)c1ccc(-c2cccc3c(C(=O)O)c(O)c(-c4ccc(Cl)cc4)nc23)cc1
IC50 (HUVEC): 20 µM

SMILES: Cc1ccc2c(C(=O)O)c(O)c(-c3cccc(Cl)c3)nc2c1C
IC50 (HUVEC): 5 µM

SMILES: Cc1ccc2c(C(=O)O)c(O)c(-c3ccc(C(C)C)cc3)nc2c1C
IC50 (HUVEC): 8 µM

SMILES: CC(C)c1cccc2c(C(=O)O)c(O)c(-c3ccc(Cl)cc3)nc12
clearance [5]: 6.5 mL/min/kg
AUC [6]: 6.7 µM·h
IC50 [1]: 283 µM
Cmax [7]: 7 µM
IC50 (HUVEC): 4.7 µM

SMILES: COc1ccc2cc([C@H](C)C(=O)O)ccc2c1 [NAPROXEN]
inhibition in vivo at 10 mg/kg (Rattus norvegicus [12]): 68.3%

SMILES: Cc1cc(OC(F)(F)F)cc2c(C(=O)O)c(O)c(-c3ccc(Cl)cc3)nc12
IC50 (HUVEC): 15.5 µM

SMILES: O=C(O)c1ccc(-c2ccc3nc(-c4ccc(Cl)cc4)c(O)c(C(=O)O)c3c2)cc1
IC50 [1]: 135 µM

SMILES: O=C(O)c1c(O)c(-c2ccc(Cl)cc2)nc2ccc(-c3ccccc3)cc12
IC50 [1]: 230 µM

SMILES: Cc1ccc2c(C(=O)O)c(O)c(-c3ccc(Br)cc3)nc2c1C
clearance [5]: 6.2 mL/min/kg
AUC [6]: 6.52 µM·h
Cmax [7]: 5.5 µM
IC50 (HUVEC): 6 µM

SMILES: COc1ccc(-c2ccc3nc(-c4ccc(Cl)cc4)c(O)c(C(=O)O)c3c2)cc1
inhibition [17]: 39%

SMILES: CCc1cccc2c(C(=O)O)c(O)c(-c3ccc(Cl)cc3)nc12
IC50 (HUVEC): 10 µM

SMILES: O=C(O)c1c(O)c(-c2ccc(Cl)cc2)nc2c(Cl)cccc12
IC50 [1]: 141 µM
IC50 (HUVEC): 22 µM

SMILES: O=C(O)c1c(O)c(-c2ccc(Cl)cc2)nc2ccc(-c3ccsc3)cc12
IC50 [1]: 134 µM

SMILES: Cc1cccc2c(C(=O)O)c(O)c(-c3ccc(Cl)cc3)nc12
IC50 [1]: 212 µM
IC50 (HUVEC): 13 µM
